# Data: patent publication US20210283211A1, “COMPOSITIONS AND METHODS OF ALLEVIATING RESISTANCE TO CHEMOTHERAPY” (CITY OF HOPE, priority 2019, published 2021)
# pIC50: −log10 of the molar value. “Also recorded” adds a separate entry of the source.
# Assays:
# [1] = test system: H2009 spheroids; assay: 3D spheroid assay (red fluorescence viability, caspase-3/7); format: cell-based, human; conditions: 300 nM, 72 hours
# Experimental: 3D spheroid assay. 3D spheroid experiments were performed using cell lines stably transfected with NucLight Red Lentivirus (Essen Bioscience) to visualize red fluorescence as an indicator of cell viability. Cells were seeded on a 96-well ultra-low attachment plate and allowed to form spheroids overnight. Drug treatment was added as indicated along with Cytotox Green Reagent (Essen BioScience), used as a green fluorescence indicator of cell death due to loss of cell membrane integrity. To monitor cell proliferation and apoptosis over time, the plate was placed in the IncuCyte S3 Live-Cell Analysis System (Essen BioScience) and images were acquired every 2 hours. Data analysis was generated by the IncuCyte software using a red fluorescence mask to accurately measure intensity and area of red fluorescence, indicating spheroid viability and a green fluorescence mask, indicating cell death.
# Confocal microscopy. […] Images were processed using ZEN software and analyzed using ImageJ (Schneider, C. A.; Rasband, W. S. & Eliceiri, K. W. (2012), “NIH Image to ImageJ: 25 years of image analysis”, Nature methods 9(7): 671-675, PMID 22930834).
# To mimic conditions closer to in vivo, the effect of knocking down PXN or ITGB4 was discerned in spheroids (3D) formed from the cell lines used in 2D culture. […] The spheroid growth and survival were quantitated by monitoring dye intensity and area in real time. […]
# [2] = test system: ITGB4, PXN, FAK, MET, γH2AX, cleaved PARP in H1993 cells; assay: Immunoblot; format: cell-based, human; conditions: 50-200 nM carfilzomib
# Experimental: (§1) West blotting: Cell lysates were prepared with 1×RIPA buffer (MilliporeSigma) and denatured in 1× reducing sample buffer at 95° C. for 5 minutes. Protein samples (15 μg) were run on 4-15% TGX gels (Bio-Rad, Hercules, Calif., USA) and transferred onto nitrocellulose membranes (Bio-Rad). Blots were blocked with 5% non-fat milk in TBS-T for 1 hour at room temperature and probed with primary antibody diluted in 2.5% BSA in TBS-T overnight at 4° C. After three washes with TBS-T, blots were incubated with HRP-conjugated secondary antibodies for 2 hours at room temperature. After three more washes, bands of interest were visualized via chemiluminescence using Western Bright ECL HRP substrate (Advansta, Menlo Park, Calif., USA) and imaged with the ChemiDoc MP imager (Bio-Rad).
# (§2) Then a sublethal dose was used to determine the effect of these compounds on ITGB4 and PXN expression and caspase activity (FIG. 9I). […] These eleven compounds were further screened in the cisplatin-resistant cell line H2009. […] Further, carfilzomib was tested in another cisplatin-resistant cell line H1993.
# [3] = test system: ITGB4, PXN, FAK, p27, phospho-Rb, γH2AX, cleaved PARP in H2009 cells; assay: Immunoblot; format: cell-based, human; conditions: sublethal dose
# Experimental: as §1, §2
# [4] = test system: H2009 cells; assay: cells; format: cell-based; conditions: Homo sapiens
# Experimental: Cell viability assay: Cell Counting Kit-8 (CCK-8) was purchased from Dojindo Molecular Technologies (Rockville, Md., USA). Cells were seeded on a 96-well plate and allowed to adhere in complete medium for 24 hours. Test compounds were added to 100 μl of medium at the indicated concentrations for 72 hours. Ten μl of the CCK-8 reagent were added to each well and absorbance at 450 nm was measured using a Tecan Spark 10M multimode microplate reader.
# as §2
# [5] = test system: H2009 cells; assay: IncuCyte cell proliferation and caspase-3/7 apoptosis assay; format: cell-based, human; conditions: 80 nM, 72 hours, among eleven compounds
# Experimental: Cell proliferation and apoptosis assay. Cell proliferation assays were performed using cell lines stably transfected with NucLight Red Lentivirus (Essen Bioscience) to accurately visualize and count the nucleus of a single cell. Cells were seeded on a 96-well plate and allowed to adhere for 24 hours. Test compounds were added at indicated concentrations. Caspase-3/7 Green Apoptosis Reagent (Essen Bioscience) was also added as a green fluorescent indicator of caspase-3/7-mediated apoptotic activity. To monitor cell proliferation and apoptosis over time, the plate was placed in the IncuCyte S3 Live-Cell Analysis System (Essen BioScience) and images were acquired every 2 hours. Data analysis was generated by the IncuCyte software using a red fluorescence mask to accurately count each cell nucleus and a green fluorescence mask to measure apoptosis over time.
# To determine whether the inhibition in cell proliferation associated with ITGB4 knockdown was due to enhanced apoptosis or reduced cell division (cytostatic), the Essen Bioscience Caspase-3/7 Green apoptosis assay in live cells was conducted. The NucView™[…], a DNA intercalating dye was used to enable quantification of apoptosis over time. The dye is impermeable and non-toxic to cells but once the cell membrane is permeabilized by caspase-3/7, the dye enters the cell and gets activated due to change in pH leading to the generation of green fluorescence that is then detected in real time and quantified using the IncuCyte System (FIG. 4B).
# To address this, H1993 and H2009 cells were treated with cisplatin for 3 days and the changes were analyzed by immunoblotting. […] Next, H1993 and H2009 cells were transiently transfected with ITGB4 siRNA and 24 hours post-transfection they were treated with 10 μM cisplatin and cell proliferation and caspase activity were determined. […] However, in response to cisplatin in ITGB4 knockdown cells, the fold change dipped to <1, alluding to a cytotoxic effect (FIG. 4C). […] However, cell death was not due to caspase activation but appeared to be due to cell bursting which is seen in anoikis (FIGS. 3K and 3L).
compound,measurement,setting,value
CC(C)C[C@H](NC(=O)[C@H](CCc1ccccc1)NC(=O)CN1CCOCC1)C(=O)N[C@@H](Cc1ccccc1)C(=O)N[C@@H](CC(C)C)C(=O)[C@@]1(C)CO1 [Carfilzomib],drop in red intensity of spheroid,[1],2 fold
same,increase in caspase activity,[1],2 fold
same,protein expression by immunoblot,[2],reduction in ITGB4 expression and increase in cleaved PARP and γH2AX
same,protein expression by immunoblot,[3],"reduced ITGB4 and PXN expression; also recorded: reduced expression of ITGB4 and phospho-Rb (S807/811) and increased expression of p27, γH2AX, and cleaved PARP"
same,cytotoxicity at 0.08 µM,"[4]; NCI-H2009, 72 h, read-out: reduction in the cell viability",80%
same,pIC50,"[4]; NCI-H2009, H2009 cells, increasing dose, 72 hours",6.38
same,inhibitory effect in cell proliferation,[5],greatest inhibitory effect in cell proliferation
